Reference: ChEMBL document CHEMBL5316381, “Discovery of [1,2,3]Triazolo[4,5-c]quinoline Derivatives as a New Class of Ataxia-Telangiectasia Mutated Kinase Inhibitors” (ACS Med Chem Lett, 2023)

Target: Serine-protein kinase ATM (Homo sapiens, UniProt Q13315)
Assay: Inhibition of ATM (unknown origin) using GST-cMyc-p53 as substrate incubated for 30 mins in presence of Mg/ATP mix by HTRF-based analysis

Sequence of Serine-protein kinase ATM (Q13315 whole entry): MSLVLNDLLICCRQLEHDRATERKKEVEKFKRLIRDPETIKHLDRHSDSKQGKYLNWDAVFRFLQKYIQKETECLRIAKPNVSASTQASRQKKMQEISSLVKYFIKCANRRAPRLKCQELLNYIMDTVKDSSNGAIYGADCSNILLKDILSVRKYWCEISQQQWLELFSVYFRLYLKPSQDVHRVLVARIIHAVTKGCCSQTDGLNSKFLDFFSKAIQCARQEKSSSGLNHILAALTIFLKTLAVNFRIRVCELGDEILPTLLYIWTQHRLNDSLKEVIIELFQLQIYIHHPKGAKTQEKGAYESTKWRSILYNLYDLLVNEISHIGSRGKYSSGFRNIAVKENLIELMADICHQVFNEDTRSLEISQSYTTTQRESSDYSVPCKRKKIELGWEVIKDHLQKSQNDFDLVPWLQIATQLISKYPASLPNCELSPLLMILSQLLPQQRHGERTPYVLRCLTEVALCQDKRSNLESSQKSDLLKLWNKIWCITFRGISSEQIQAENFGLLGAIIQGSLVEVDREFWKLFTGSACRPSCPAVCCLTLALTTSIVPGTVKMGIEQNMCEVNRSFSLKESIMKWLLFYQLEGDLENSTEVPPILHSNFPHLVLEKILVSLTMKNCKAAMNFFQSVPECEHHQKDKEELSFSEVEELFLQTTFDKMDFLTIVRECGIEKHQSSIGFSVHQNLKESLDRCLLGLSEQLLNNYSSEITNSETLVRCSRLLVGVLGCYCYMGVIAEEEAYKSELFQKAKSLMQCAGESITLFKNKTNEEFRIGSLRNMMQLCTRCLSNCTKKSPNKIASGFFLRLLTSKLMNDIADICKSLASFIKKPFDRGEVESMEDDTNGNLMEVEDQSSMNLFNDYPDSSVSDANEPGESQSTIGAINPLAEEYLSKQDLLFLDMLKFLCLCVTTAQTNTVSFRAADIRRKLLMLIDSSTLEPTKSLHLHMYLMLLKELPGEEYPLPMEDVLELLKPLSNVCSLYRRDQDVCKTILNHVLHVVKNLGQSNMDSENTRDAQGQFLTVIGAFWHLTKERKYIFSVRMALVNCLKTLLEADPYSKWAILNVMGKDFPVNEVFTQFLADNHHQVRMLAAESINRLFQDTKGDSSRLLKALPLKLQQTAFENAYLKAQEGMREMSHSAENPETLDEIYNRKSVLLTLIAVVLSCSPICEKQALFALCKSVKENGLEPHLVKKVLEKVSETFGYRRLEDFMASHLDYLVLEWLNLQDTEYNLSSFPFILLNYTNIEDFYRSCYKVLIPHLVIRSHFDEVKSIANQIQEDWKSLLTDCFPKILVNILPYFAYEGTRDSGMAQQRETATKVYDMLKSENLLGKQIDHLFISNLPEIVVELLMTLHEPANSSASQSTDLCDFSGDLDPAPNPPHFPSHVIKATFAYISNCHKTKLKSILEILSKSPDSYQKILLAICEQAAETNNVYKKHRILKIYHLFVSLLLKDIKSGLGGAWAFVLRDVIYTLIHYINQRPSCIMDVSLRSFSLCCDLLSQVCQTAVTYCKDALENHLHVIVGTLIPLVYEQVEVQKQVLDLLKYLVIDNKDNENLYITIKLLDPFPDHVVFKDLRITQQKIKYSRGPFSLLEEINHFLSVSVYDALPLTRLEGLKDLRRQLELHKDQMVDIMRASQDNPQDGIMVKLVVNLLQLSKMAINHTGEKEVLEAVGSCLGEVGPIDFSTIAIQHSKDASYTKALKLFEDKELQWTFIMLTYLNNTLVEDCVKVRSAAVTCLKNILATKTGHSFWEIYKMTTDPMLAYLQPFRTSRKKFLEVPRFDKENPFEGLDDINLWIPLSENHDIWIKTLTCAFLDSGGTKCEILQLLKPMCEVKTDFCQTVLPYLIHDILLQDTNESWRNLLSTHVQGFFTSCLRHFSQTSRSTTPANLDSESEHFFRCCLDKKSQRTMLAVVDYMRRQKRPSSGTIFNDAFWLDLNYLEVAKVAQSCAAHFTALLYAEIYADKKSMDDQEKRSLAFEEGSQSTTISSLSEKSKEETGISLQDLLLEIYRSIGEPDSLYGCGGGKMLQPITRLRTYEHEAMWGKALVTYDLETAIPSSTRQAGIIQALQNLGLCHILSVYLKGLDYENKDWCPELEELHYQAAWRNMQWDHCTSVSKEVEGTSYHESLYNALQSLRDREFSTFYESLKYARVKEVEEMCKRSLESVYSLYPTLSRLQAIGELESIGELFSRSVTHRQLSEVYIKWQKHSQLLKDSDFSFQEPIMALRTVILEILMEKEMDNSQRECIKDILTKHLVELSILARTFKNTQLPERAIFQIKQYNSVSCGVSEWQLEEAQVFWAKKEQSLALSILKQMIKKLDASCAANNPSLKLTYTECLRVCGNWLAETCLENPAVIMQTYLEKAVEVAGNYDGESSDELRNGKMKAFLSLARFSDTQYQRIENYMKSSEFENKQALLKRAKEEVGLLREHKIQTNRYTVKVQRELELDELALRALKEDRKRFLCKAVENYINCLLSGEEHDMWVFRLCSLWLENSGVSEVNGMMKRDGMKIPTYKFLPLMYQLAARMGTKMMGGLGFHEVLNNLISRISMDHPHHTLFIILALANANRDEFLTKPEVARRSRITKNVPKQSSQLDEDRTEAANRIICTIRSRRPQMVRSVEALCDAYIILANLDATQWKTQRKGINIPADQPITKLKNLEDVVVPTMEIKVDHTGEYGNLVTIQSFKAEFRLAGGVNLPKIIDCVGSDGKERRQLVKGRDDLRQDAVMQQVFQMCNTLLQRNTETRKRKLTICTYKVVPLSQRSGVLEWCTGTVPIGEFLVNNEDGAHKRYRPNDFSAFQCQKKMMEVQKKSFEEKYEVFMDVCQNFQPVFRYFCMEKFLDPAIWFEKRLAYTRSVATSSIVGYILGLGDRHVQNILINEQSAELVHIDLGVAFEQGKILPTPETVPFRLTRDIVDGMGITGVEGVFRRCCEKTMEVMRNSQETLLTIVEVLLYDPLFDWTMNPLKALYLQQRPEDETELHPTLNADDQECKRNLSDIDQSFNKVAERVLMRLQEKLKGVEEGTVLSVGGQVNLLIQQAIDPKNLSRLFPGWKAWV

| IC50 [nM] | Structure (SMILES) |
| --- | --- |
| 13 | COc1ccc(-c2ccc3ncc4nnn([C@H](C)c5ccccc5)c4c3c2)cn1 |
| 79 | CC[C@@H](c1ccccc1)n1nnc2cnc3ccc(-c4ccc(N)nc4)cc3c21 |
| 6 | C[C@H](c1ccccc1)n1nnc2cnc3ccc(-c4ccc(N5CCN(C)CC5)nc4)cc3c21 |
| 2 | C[C@H](c1ccccc1)n1nnc2cnc3ccc(-c4ccc(OCCCN5CCCCC5)nc4)cc3c21 |
| 53 | C[C@@H](c1cccc(F)c1)n1nnc2cnc3ccc(-c4ccc(N)nc4)cc3c21 |
| 57 | C[C@H](c1ccccc1)n1nnc2cnc3ccc(-c4ccc(F)nc4)cc3c21 |
| 35 | Cc1ccc(-c2ccc3ncc4nnn([C@H](C)c5ccccc5)c4c3c2)cn1 |
| 20 | CC(C)n1nnc2cnc3ccc(-c4ccc(N)nc4)cc3c21 |
| 2 | C[C@H](c1ccccc1)n1nnc2cnc3ccc(-c4ccc(OCCCN5CCN(C)CC5)nc4)cc3c21 |
| 225 | C[C@H](c1ccccc1)n1nnc2cnc3ccc(-c4ccc(C(F)(F)F)nc4)cc3c21 |
| 482 | C[C@H](c1ccccc1)n1nnc2cnc3ccc(-c4cnc(N(C)C)nc4)cc3c21 |
| 174 | C[C@H](c1ccccc1)n1nnc2cnc3ccc(-c4ccc(F)cc4)cc3c21 |
| 2 | C[C@H](c1ccccc1)n1nnc2cnc3ccc(-c4ccc(N)nc4)cc3c21 |
| 71 | C[C@H](c1ccccc1)n1nnc2cnc3ccc(-c4ccc(N5CCCC5)nc4)cc3c21 |
| 10 | C[C@H](c1ccccc1)n1nnc2cnc3ccc(-c4ccc(OCCCCN(C)C)nc4)cc3c21 |
| 103 | COc1ccc([C@H](C)n2nnc3cnc4ccc(-c5ccc(N)nc5)cc4c32)cc1 |
| 2 | C[C@H](c1ccccc1)n1nnc2cnc3ccc(-c4ccc(OCCCN5CCCC5)nc4)cc3c21 |
| 25 | C[C@H](c1ccccc1)n1nnc2cnc3ccc(-c4ccc(O)nc4)cc3c21 |
| 250 | C[C@@H](c1ccc(F)cc1)n1nnc2cnc3ccc(-c4ccc(N)nc4)cc3c21 |
